Measurements published in patent US7517874B2 (priority 2007, dated 2009).
Read-outs that look alike come from different tables or passages of the source.

Experiments:
[1] = target: human CB1 receptor (hCB1) (Homo sapiens, UniProt P21554); test: cell-based; format: cell-based; conditions: for +/− HCB1: agonist or inverse agonist at hCB1
Method in brief: (§1)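 First, cells in IBMX-containing HEPES-buffered HBSS are raised to elevated cAMP with 2-8 μM NKH-477 for 30 min. Data are normalised to the forskolin and forskolin + 1 μM CP55,940 controls.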

rat CB2 receptor (rCB2) = target: T1, rat CB2 receptor (rCB2) (Rattus norvegicus, UniProt Q9QZN9); test: cell-based; format: cell-based; conditions: for +/− RCB2: agonist or inverse agonist at rCB2
T1 sequence (Q9QZN9 1-360): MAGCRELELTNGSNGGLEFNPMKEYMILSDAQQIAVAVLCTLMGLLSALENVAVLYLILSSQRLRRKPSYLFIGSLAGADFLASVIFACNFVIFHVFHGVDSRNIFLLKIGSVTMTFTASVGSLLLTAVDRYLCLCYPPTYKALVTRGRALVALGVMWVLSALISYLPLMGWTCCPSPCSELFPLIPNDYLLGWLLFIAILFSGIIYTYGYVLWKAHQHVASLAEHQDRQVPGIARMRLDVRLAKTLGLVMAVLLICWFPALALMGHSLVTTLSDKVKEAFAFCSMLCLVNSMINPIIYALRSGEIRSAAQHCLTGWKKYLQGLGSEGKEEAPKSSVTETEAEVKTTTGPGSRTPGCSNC
Method in brief: as §1

[2] = groups >100 nM-10 μM and >10 μM, cAMP, CHO-K1 hCB1, read-out: EC50 HCB1

Sequence of human CB1 receptor (hCB1) (P21554 whole entry): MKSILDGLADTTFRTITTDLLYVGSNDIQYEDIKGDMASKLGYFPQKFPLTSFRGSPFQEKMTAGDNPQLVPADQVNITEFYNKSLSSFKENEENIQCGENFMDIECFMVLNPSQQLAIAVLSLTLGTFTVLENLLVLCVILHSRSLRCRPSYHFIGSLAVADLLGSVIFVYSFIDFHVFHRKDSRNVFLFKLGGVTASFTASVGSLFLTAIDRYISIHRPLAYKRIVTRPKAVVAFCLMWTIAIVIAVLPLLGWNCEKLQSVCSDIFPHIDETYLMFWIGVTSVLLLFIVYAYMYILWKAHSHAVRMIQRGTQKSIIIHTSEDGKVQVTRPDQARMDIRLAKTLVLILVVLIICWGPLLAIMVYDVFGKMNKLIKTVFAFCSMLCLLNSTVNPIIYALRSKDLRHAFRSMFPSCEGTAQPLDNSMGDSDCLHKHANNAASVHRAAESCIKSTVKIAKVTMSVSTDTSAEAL

In the case of `CNC(=O)[C@@H](NC(=O)c1nc(CCCN2CCCCC2)n2c1CN(C)CCC2)C(C)(C)C` [Compound 501, (S)-N-(3,3-dimethyl-1-(methylamino)-1-oxobutan-2-yl)-8-methyl-3-(3-(piperidin-1-yl)propyl)-6,7,8,9-tetrahydro-5H-imidazo[1,5-a][1,4]diazepine-1-carboxamide], the EC50 [1] is reported as > 10000 nM and the “+/− RCB2” value (rat CB2 receptor (rCB2)) is reported as “+”.
With `CNC(=O)[C@@H](NC(=O)c1nc(CCCN2CCCC2)n2c1CN(C)CCC2)C(C)(C)C` [Compound 502, (S)-N-(3,3-dimethyl-1-(methylamino)-1-oxobutan-2-yl)-8-methyl-3-(3-(pyrrolidin-1-yl)propyl)-6,7,8,9-tetrahydro-5H-imidazo[1,5-a][1,4]diazepine-1-carboxamide] the EC50 [1] was > 10000 nM and the “+/− RCB2” value (rat CB2 receptor (rCB2)) was “+”.
`CNC(=O)[C@@H](NC(=O)c1nc(C2CCNCC2)n2c1CN(C)CCC2)C(C)(C)C` [Compound 503] was tested, and the “+/− HCB1” value [1] was “+” and the “+/− RCB2” value (rat CB2 receptor (rCB2)) was “+”.
`CNC(=O)[C@@H](NC(=O)c1nc(C2CCCCO2)n2c1CN(C)CCC2)C(C)(C)C` (stereo partly drawn) [Compound 504, N-((S)-3,3-dimethyl-1-(methylamino)-1-oxobutan-2-yl)-8-methyl-3-(tetrahydro-2H-pyran-2-yl)-6,7,8,9-tetrahydro-5H-imidazo[1,5-a][1,4]diazepine-1-carboxamide] was tested, and the EC50 [1] was > 10000 nM and the “+/− RCB2” value (rat CB2 receptor (rCB2)) was “+”.
In the case of `CNC(=O)[C@@H](NC(=O)c1nc(C(C)C(F)(F)F)n2c1CN(C)CCC2)C(C)(C)C` (stereo partly drawn) [Compound 505, N-((S)-3,3-dimethyl-1-(methylamino)-1-oxobutan-2-yl)-8-methyl-3-(1,1,1-trifluoropropan-2-yl)-6,7,8,9-tetrahydro-5H-imidazo[1,5-a][1,4]diazepine-1-carboxamide], the “+/− HCB1” value [1] is reported as “+” and the “+/− RCB2” value (rat CB2 receptor (rCB2)) is reported as “+”.
In the case of `CNC(=O)[C@@H](NC(=O)c1nc(C(C)c2ccccc2)n2c1CN(C)CCC2)C(C)(C)C` (stereo partly drawn) [Compound 506, N-((S)-3,3-dimethyl-1-(methylamino)-1-oxobutan-2-yl)-8-methyl-3-(1-phenylethyl)-6,7,8,9-tetrahydro-5H-imidazo[1,5-a][1,4]diazepine-1-carboxamide], the “+/− HCB1” value [1] is reported as “+” and the “+/− RCB2” value (rat CB2 receptor (rCB2)) is reported as “+”.
With `CNC(=O)[C@@H](NC(=O)c1nc(C(C)C(C)C)n2c1CN(C)CCC2)C(C)(C)C` (stereo partly drawn) [Compound 507, N-((S)-3,3-dimethyl-1-(methylamino)-1-oxobutan-2-yl)-8-methyl-3-(3-methylbutan-2-yl)-6,7,8,9-tetrahydro-5H-imidazo[1,5-a][1,4]diazepine-1-carboxamide] the “+/− HCB1” value [1] was “+” and the “+/− RCB2” value (rat CB2 receptor (rCB2)) was “+”.
For `CNC(=O)[C@@H](NC(=O)c1nc(CCCCO)n2c1CN(C)CCC2)C(C)(C)C` [Compound 508, (S)-N-(3,3-dimethyl-1-(methylamino)-1-oxobutan-2-yl)-3-(4-hydroxybutyl)-8-methyl-6,7,8,9-tetrahydro-5H-imidazo[1,5-a][1,4]diazepine-1-carboxamide], the “+/− HCB1” value [1] was “+” and the EC50 (rat CB2 receptor (rCB2)) was > 10 µM.
With `CNC(=O)[C@@H](NC(=O)c1nc(/C=C/CN2CCOCC2)n2c1CN(C)CCC2)C(C)(C)C` [Compound 509, (S,E)-N-(3,3-dimethyl-1-(methylamino)-1-oxobutan-2-yl)-8-methyl-3-(3-morpholinoprop-1-enyl)-6,7,8,9-tetrahydro-5H-imidazo[1,5-a][1,4]diazepine-1-carboxamide] the EC50 [1] was > 10000 nM and the EC50 (rat CB2 receptor (rCB2)) was > 10 µM.
In the case of `CNC(=O)[C@@H](NC(=O)c1nc(/C=C/CN2CCCCC2)n2c1CN(C)CCC2)C(C)(C)C` [Compound 510, (S,E)-N-(3,3-dimethyl-1-(methylamino)-1-oxobutan-2-yl)-8-methyl-3-(3-(piperidin-1-yl)prop-1-enyl)-6,7,8,9-tetrahydro-5H-imidazo[1,5-a][1,4]diazepine-1-carboxamide], the EC50 [1] is reported as > 10000 nM and the “+/− RCB2” value (rat CB2 receptor (rCB2)) is reported as “+”.
`CNC(=O)[C@@H](NC(=O)c1nc(/C=C/CN2CCCC2)n2c1CN(C)CCC2)C(C)(C)C` [Compound 511, (S,E)-N-(3,3-dimethyl-1-(methylamino)-1-oxobutan-2-yl)-8-methyl-3-(3-(pyrrolidin-1-yl)prop-1-enyl)-6,7,8,9-tetrahydro-5H-imidazo[1,5-a][1,4]diazepine-1-carboxamide] was tested, and the EC50 [1] was > 10000 nM and the “+/− RCB2” value (rat CB2 receptor (rCB2)) was “+”.
`CCN(CC)C/C=C/c1nc(C(=O)N[C@H](C(=O)NC)C(C)(C)C)c2n1CCCN(C)C2` [Compound 512, (S,E)-3-(3-(diethylamino)prop-1-enyl)-N-(3,3-dimethyl-1-(methylamino)-1-oxobutan-2-yl)-8-methyl-6,7,8,9-tetrahydro-5H-imidazo[1,5-a][1,4]diazepine-1-carboxamide] was tested, and the EC50 [1] was > 10000 nM and the EC50 (rat CB2 receptor (rCB2)) was > 10 µM.
`CNC(=O)[C@@H](NC(=O)c1nc(/C=C/CN(C)C)n2c1CN(C)CCC2)C(C)(C)C` [Compound 513, (S,E)-N-(3,3-dimethyl-1-(methylamino)-1-oxobutan-2-yl)-3-(3-(dimethylamino)prop-1-enyl)-8-methyl-6,7,8,9-tetrahydro-5H-imidazo[1,5-a][1,4]diazepine-1-carboxamide] was tested, and the EC50 [1] was > 10000 nM and the “+/− RCB2” value (rat CB2 receptor (rCB2)) was “−”.
`CNC(=O)[C@@H](NC(=O)c1nc(/C=C/CCO)n2c1CN(C)CCC2)C(C)(C)C` [Compound 514, (S,E)-N-(3,3-dimethyl-1-(methylamino)-1-oxobutan-2-yl)-3-(4-hydroxybut-1-enyl)-8-methyl-6,7,8,9-tetrahydro-5H-imidazo[1,5-a][1,4]diazepine-1-carboxamide] was tested, and the “+/− HCB1” value [1] was “+” and the “+/− RCB2” value (rat CB2 receptor (rCB2)) was “+”.
For `CC(C)(C)OC(=O)N1CCCn2c(-c3ccccc3)nc(C(=O)N[C@H](C(=O)O)C(C)(C)C)c2C1` [Compound 515, (S)-2-(8-(tert-butoxycarbonyl)-3-phenyl-6,7,8,9-tetrahydro-5H-imidazo[1,5-a][1,4]diazepine-1-carboxamido)-3,3-dimethylbutanoic acid], the EC50 [1, 2] was > 10000 nM and the “+/− RCB2” value (rat CB2 receptor (rCB2)) was “−”.
With `Cc1ccc(-c2nc(C(=O)N[C@H](C(=O)O)C(C)(C)C)c3n2CCCN(C(=O)OC(C)(C)C)C3)c(F)c1` [Compound 516, (S)-2-(8-(tert-butoxycarbonyl)-3-(2-fluoro-4-methylphenyl)-6,7,8,9-tetrahydro-5H-imidazo[1,5-a][1,4]diazepine-1-carboxamido)-3,3-dimethylbutanoic acid] the EC50 [1] was > 10000 nM and the “+/− RCB2” value (rat CB2 receptor (rCB2)) was “−”.
For `Cc1noc([C@@H](NC(=O)c2nc(-c3ccccc3)n3c2CN(C(=O)OC(C)(C)C)CCC3)C(C)(C)C)n1` [Compound 517, (S)-tert-butyl 1-(2,2-dimethyl-1-(3-methyl-1,2,4-oxadiazol-5-yl)propylcarbamoyl)-3-phenyl-6,7-dihydro-5H-imidazo[1,5-a][1,4]diazepine-8(9H)-carboxylate], the EC50 [1, 2] was > 10000 nM and the “+/− RCB2” value (rat CB2 receptor (rCB2)) was “−”.
With `Cc1ccc(-c2nc(C(=O)N[C@H](c3nc(C)no3)C(C)(C)C)c3n2CCCN(C(=O)OC(C)(C)C)C3)c(F)c1` [Compound 518, (S)-tert-butyl 1-(2,2-dimethyl-1-(3-methyl-1,2,4-oxadiazol-5-yl)propylcarbamoyl)-3-(2-fluoro-4-methylphenyl)-6,7-dihydro-5H-imidazo[1,5-a][1,4]diazepine-8(9H)-carboxylate] the EC50 [1] was > 10000 nM and the “+/− RCB2” value (rat CB2 receptor (rCB2)) was “−”.
`Cc1noc([C@@H](NC(=O)c2nc(-c3ccccc3)n3c2CNCCC3)C(C)(C)C)n1` [Compound 519, (S)-N-(2,2-dimethyl-1-(3-methyl-1,2,4-oxadiazol-5-yl)propyl)-3-phenyl-6,7,8,9-tetrahydro-5H-imidazo[1,5-a][1,4]diazepine-1-carboxamide] was tested, and the EC50 [1] was > 10000 nM and the “+/− RCB2” value (rat CB2 receptor (rCB2)) was “+”.
`Cc1ccc(-c2nc(C(=O)N[C@H](c3nc(C)no3)C(C)(C)C)c3n2CCCNC3)c(F)c1` [Compound 520, (S)-N-(2,2-dimethyl-1-(3-methyl-1,2,4-oxadiazol-5-yl)propyl)-3-(2-fluoro-4-methylphenyl)-6,7,8,9-tetrahydro-5H-imidazo[1,5-a][1,4]diazepine-1-carboxamide] was tested, and the EC50 [1] was > 10000 nM and the “+/− RCB2” value (rat CB2 receptor (rCB2)) was “−”.
`Cc1noc([C@@H](NC(=O)c2nc(-c3ccccc3)n3c2CN(C)CCC3)C(C)(C)C)n1` [Compound 521, (S)-N-(2,2-dimethyl-1-(3-methyl-1,2,4-oxadiazol-5-yl)propyl)-8-methyl-3-phenyl-6,7,8,9-tetrahydro-5H-imidazo[1,5-a][1,4]diazepine-1-carboxamide] was tested, and the EC50 [1] was > 10000 nM and the “+/− RCB2” value (rat CB2 receptor (rCB2)) was “+”.
With `Cc1ccc(-c2nc(C(=O)N[C@H](c3nc(C)no3)C(C)(C)C)c3n2CCCN(C)C3)c(F)c1` [Compound 522, (S)-N-(2,2-dimethyl-1-(3-methyl-1,2,4-oxadiazol-5-yl)propyl)-3-(2-fluoro-4-methylphenyl)-8-methyl-6,7,8,9-tetrahydro-5H-imidazo[1,5-a][1,4]diazepine-1-carboxamide] the EC50 [1] was > 10000 nM and the “+/− RCB2” value (rat CB2 receptor (rCB2)) was “−”.
